Data from ChEMBL document CHEMBL3885881, “DrugMatrix”.

Species on record: Rattus norvegicus
Experiment: DrugMatrix - Regimen: Daily Repeat
Assay type: toxicity, organism-based, Sprague-Dawley
Parameters: regimen Daily Repeat, gender Male, age 6-8 weeks
Details: in vivo, sc, route subcutaneous, […]; for ABSOLUTE BASOPHIL / ABSOLUTE EOSINOPHIL / ABSOLUTE LYMPHOCYTE / ABSOLUTE MONOCYTE / BASOPHIL / EOSINOPHIL / ERYTHROCYTE COUNT / HEMATOCRIT / HEMOGLOBIN / LEUKOCYTE COUNT / LYMPHOCYTE / MEAN CORPUSCULAR HEMOGLOBIN / MEAN CORPUSCULAR HEMOGLOBIN CONCENTRATION / MEAN CORPUSCULAR VOLUME / MONOCYTE / NEUTROPHIL / NUCLEATED RED BLOOD CELLS / PLATELET COUNT: tissue Blood; for ALANINE AMINOTRANSFERASE / ALBUMIN / ASPARTATE AMINOTRANSFERASE / BLOOD UREA NITROGEN / CARBON DIOXIDE / CHLORIDE / CHOLESTEROL / CREATINE PHOSPHOKINASE / CREATININE / GLUCOSE / LACTATE DEHYDROGENASE / LIPASE / PHOSPHORUS / POTASSIUM / SODIUM / TOTAL BILIRUBIN / TOTAL PROTEIN / URIC ACID: tissue Plasma
[1] = 64 mg/kg, 120 h, dose level Low, time 5 day
[2] = 636 mg/kg, 72 h, dose level High, time 3 day
[3] = 636 mg/kg, 120 h, dose level High, time 5 day

## Nc1ccc(S(N)(=O)=O)cc1 [SULFANILAMIDE]
[1]
  ABSOLUTE BASOPHIL: 0 CELLS/uL
  ABSOLUTE EOSINOPHIL: 0 CELLS/uL
  ABSOLUTE LYMPHOCYTE: 12536.33 CELLS/uL
  ABSOLUTE MONOCYTE: 42.67 CELLS/uL
  BASOPHIL: 0%
  EOSINOPHIL: 0%
  ERYTHROCYTE COUNT: 5.85 x10E6/uL
  HEMATOCRIT: 36.4%
  HEMOGLOBIN: 13.6 G/DL
  LEUKOCYTE COUNT: 13.6 x10E3/uL
  LYMPHOCYTE: 92.67%
  MEAN CORPUSCULAR HEMOGLOBIN: 23.33 pg
  MEAN CORPUSCULAR HEMOGLOBIN CONCENTRATION: 37.4 G/DL
  MEAN CORPUSCULAR VOLUME: 62.37 fL
  MONOCYTE: 0.33%
  NEUTROPHIL: 7%
  NUCLEATED RED BLOOD CELLS: 0.33 /100WBC
  PLATELET COUNT: 1318 x10E3/uL
  ALANINE AMINOTRANSFERASE: 52 u/L
  ALBUMIN: 4.03 G/DL
  ASPARTATE AMINOTRANSFERASE: 72 u/L
  BLOOD UREA NITROGEN: 15.67 mg/dL
  CARBON DIOXIDE: 26.33 mmol/L
  CHLORIDE: 105.33 MEQ/L
  CHOLESTEROL: 72.33 mg/dL
  CREATINE PHOSPHOKINASE: 187 u/L
  CREATININE: 0.27 mg/dL
  GLUCOSE: 156.33 mg/dL
  LACTATE DEHYDROGENASE: 102.33 u/L
  LIPASE: 11 u/L
  PHOSPHORUS: 12.07 mg/dL
  POTASSIUM: 7.26 MEQ/L
  SODIUM: 145.23 MEQ/L
  TOTAL BILIRUBIN: 0.23 mg/dL
  TOTAL PROTEIN: 5.9 G/DL
  URIC ACID: 1.87 mg/dL
[2]
  ABSOLUTE BASOPHIL: 0 CELLS/uL
  ABSOLUTE EOSINOPHIL: 116 CELLS/uL
  ABSOLUTE LYMPHOCYTE: 13223.33 CELLS/uL
  ABSOLUTE MONOCYTE: 374 CELLS/uL
  BASOPHIL: 0%
  EOSINOPHIL: 0.67%
  ERYTHROCYTE COUNT: 5.74 x10E6/uL
  HEMATOCRIT: 35.33%
  HEMOGLOBIN: 12.9 G/DL
  LEUKOCYTE COUNT: 15.8 x10E3/uL
  LYMPHOCYTE: 83.67%
  MEAN CORPUSCULAR HEMOGLOBIN: 22.47 pg
  MEAN CORPUSCULAR HEMOGLOBIN CONCENTRATION: 36.5 G/DL
  MEAN CORPUSCULAR VOLUME: 61.53 fL
  MONOCYTE: 2.33%
  NEUTROPHIL: 13.33%
  NUCLEATED RED BLOOD CELLS: 0 /100WBC
  PLATELET COUNT: 1297.33 x10E3/uL
  ALANINE AMINOTRANSFERASE: 71 u/L
  ALBUMIN: 3.97 G/DL
  ASPARTATE AMINOTRANSFERASE: 90.33 u/L
  BLOOD UREA NITROGEN: 18.67 mg/dL
  CARBON DIOXIDE: 25 mmol/L
  CHLORIDE: 103 MEQ/L
  CHOLESTEROL: 101.33 mg/dL
  CREATINE PHOSPHOKINASE: 400.67 u/L
  CREATININE: 0.16 mg/dL
  GLUCOSE: 181.67 mg/dL
  LACTATE DEHYDROGENASE: 100.67 u/L
  LIPASE: 10 u/L
  PHOSPHORUS: 12.37 mg/dL
  POTASSIUM: 5.81 MEQ/L
  SODIUM: 145.13 MEQ/L
  TOTAL BILIRUBIN: 0.2 mg/dL
  TOTAL PROTEIN: 5.67 G/DL
  URIC ACID: 2.4 mg/dL
[3]
  ABSOLUTE BASOPHIL: 0 CELLS/uL
  ABSOLUTE EOSINOPHIL: 129.33 CELLS/uL
  ABSOLUTE LYMPHOCYTE: 15741.33 CELLS/uL
  ABSOLUTE MONOCYTE: 353 CELLS/uL
  BASOPHIL: 0%
  EOSINOPHIL: 0.67%
  ERYTHROCYTE COUNT: 5.45 x10E6/uL
  HEMATOCRIT: 34.17%
  HEMOGLOBIN: 12.6 G/DL
  LEUKOCYTE COUNT: 18.03 x10E3/uL
  LYMPHOCYTE: 86.33%
  MEAN CORPUSCULAR HEMOGLOBIN: 23.13 pg
  MEAN CORPUSCULAR HEMOGLOBIN CONCENTRATION: 36.87 G/DL
  MEAN CORPUSCULAR VOLUME: 62.7 fL
  MONOCYTE: 2%
  NEUTROPHIL: 11%
  NUCLEATED RED BLOOD CELLS: 0 /100WBC
  PLATELET COUNT: 1550 x10E3/uL
  ALANINE AMINOTRANSFERASE: 66 u/L
  ALBUMIN: 3.8 G/DL
  ASPARTATE AMINOTRANSFERASE: 77 u/L
  BLOOD UREA NITROGEN: 21.67 mg/dL
  CARBON DIOXIDE: 26.67 mmol/L
  CHLORIDE: 105.33 MEQ/L
  CHOLESTEROL: 81.33 mg/dL
  CREATINE PHOSPHOKINASE: 230.33 u/L
  CREATININE: 0.16 mg/dL
  GLUCOSE: 165.33 mg/dL
  LACTATE DEHYDROGENASE: 107.33 u/L
  LIPASE: 9 u/L
  PHOSPHORUS: 12.53 mg/dL
  POTASSIUM: 7.05 MEQ/L
  SODIUM: 144.3 MEQ/L
  TOTAL BILIRUBIN: 0.2 mg/dL
  TOTAL PROTEIN: 5.63 G/DL
  URIC ACID: 1.93 mg/dL
